The source of these data is US20250122169A1, “PPARG INVERSE AGONISTS AND USES THEREOF” (Flare Therapeutics Inc., priority 2021, published 2025).

Where only a bound is given, the exact number is not on record here.

The EC50 is the concentration at which the effect is half-maximal. As usually defined, the inhibition is how much of the control response was suppressed.

Experiment [1] deals with T1, PPARG/RXRA LBD heterodimer (Homo sapiens, UniProt P37231).
T1 construct: His-TEV-Q203-Y477; Uniprot ID P37231-2; made in house; host or cells: E. coli
T1 sequence (P37231 203-477 isoform P37231-2): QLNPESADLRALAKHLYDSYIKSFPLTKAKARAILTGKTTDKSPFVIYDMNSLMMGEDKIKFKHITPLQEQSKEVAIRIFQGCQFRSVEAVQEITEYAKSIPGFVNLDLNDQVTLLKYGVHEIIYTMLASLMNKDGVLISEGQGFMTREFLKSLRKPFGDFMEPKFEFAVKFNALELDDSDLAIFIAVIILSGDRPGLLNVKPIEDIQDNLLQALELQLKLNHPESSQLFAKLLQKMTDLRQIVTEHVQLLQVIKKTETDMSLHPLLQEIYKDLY
T1 sequence (P19793 228-462 partner limits assumed): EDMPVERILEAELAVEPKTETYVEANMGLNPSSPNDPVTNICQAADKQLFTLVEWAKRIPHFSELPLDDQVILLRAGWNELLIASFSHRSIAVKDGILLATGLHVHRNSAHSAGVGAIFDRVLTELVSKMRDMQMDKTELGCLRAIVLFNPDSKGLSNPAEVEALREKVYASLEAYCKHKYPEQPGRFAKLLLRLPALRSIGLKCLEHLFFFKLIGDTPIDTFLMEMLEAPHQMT
The experiment can be described thus: PPARγ-MED1 blockade assay (TR-FRET). It counts as biochemical. Conditions: for EC50: TR-FRET, MED1 LxxLL peptide, 80 nM Rosiglitazone, 3 hours; for Emax: maximal extent, GW9662 defined as 100%, DMSO 0%, read-out: % MED1 blockade relative to GW9662. As to the method: Compound potency (IC50) and maximal extent of MED1 repulsion to PPARG were assessed a TR-FRET binding assay measuring association of a biotinylated MED1 LxxLL peptide (Biotin-[…]-amide) to PPARG/RXRA LBD heterodimer.

The target of experiment [2] is T2, PPARG/RXRA LBD heterodimer (Homo sapiens, UniProt P37231).
T2 construct: 2 nM WT PPARG LBD (E. coli expressed, His-TEV-Q203-Y477); fused on or other part: N-terminal His tag with TEV site on the PPARG LBD
The experiment can be described thus: PPARγ-NCOR1 recruitment assay (TR-FRET). It counts as biochemical. The settings on record: for Emax: 3 h, maximal extent, T0070907 defined as 100%, DMSO 0%, read-out: % NCOR recruitment relative to T907; for EC50: TR-FRET, NCOR1 ID2 peptide, 80 nM Rosiglitazone, 3 hours, read-out: PPARG-NCOR recruitment assay EC50. As to the method:
Compound potency (EC50) and maximal extent of NCOR1 recruitment to PPARG were assessed a TR-FRET binding assay measuring association of a biotinylated NCOR1 ID2 peptide (Biotin-[…]-amide) to PPARG/RXRA LBD heterodimer.
A general note: In TR-FRET formats the signal depends on donor and acceptor labels being close together.
T2 sequence (O75376 2251-2273 limits assumed, one chain of several, further chain): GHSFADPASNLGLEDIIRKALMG

Experiment [3] relates to ANGPTL4, a PPARG target gene, in HT1197 (RXRA S427F mutation) cells. The experiment can be described thus: Bladder cancer pharmacodynamic assay, HT1197 cell assay (qPCR of PPARG target gene ANGPTL4). The format is cell-based. Conditions: Homo sapiens; for inhibition at 0.1 µM: read-out: % inhibition of ANGPTL4 @ 100 nM, 100 nM compound, 24 hours, relative to DMSO control; for EC50: 24 hours treatment, qPCR. The protocol: Quantitative PCR was performed using an ABI QuantStudio 7 Flex Reaction system. Data were analyzed and reported relative to DMSO control using the comparative Ct method (ΔΔCt).
(In general: Quantitative PCR measures a nucleic acid by following its amplification.)

For the molecule `N#Cc1ccc(Cl)c(-c2cc(=O)c3cc(F)c(F)cc3[nH]2)n1` [Example 1, 5-chloro-6-(6,7-difluoro-4-oxo-1,4-dihydroquinolin-2-yl)picolinonitrile], in experiment [1], the EC50 was in the range of 10 to 100 nM and the Emax is more than 100%. For the same molecule, in experiment [2], the Emax was more than 100% and the EC50 was in the range of 10 to 100 nM. Further, the inhibition at 0.1 µM in experiment [3] amounted to 91%.
For the molecule `CCSc1cnc(C#N)cc1-c1cc(=O)c2c(F)cc(F)cc2[nH]1` [Example 12, 4-(5,7-difluoro-4-oxo-1,4-dihydroquinolin-2-yl)-5-(ethylthio)picolinonitrile], in experiment [1], the EC50 was more than 10000 nM and the Emax was less than 100%. Further, in experiment [2], the Emax is less than 100% and the EC50 is more than 10000 nM. Also, in experiment [3], the inhibition at 0.1 µM was 18%.
Turning to `N#Cc1cc(-c2cc(=O)c3c(F)c(N4CCS(=O)(=O)CC4)c(F)cc3[nH]2)c(Cl)cn1` [Example 18, 5-chloro-4-(6-(1,1-dioxidothiomorpholino)-5,7-difluoro-4-oxo-1,4-dihydroquinolin-2-yl)picolinonitrile], in experiment [1], the EC50 was 10 to 100 nM and the Emax is more than 100%. For the same molecule, in experiment [2], the Emax is more than 100% and the EC50 lay in the range of 10 to 100 nM. Besides, the inhibition at 0.1 µM in experiment [3] worked out at 57%.
For the molecule `N#Cc1ccc(Cl)c(-c2cc(=O)c3c(F)c(N4CCS(=O)(=O)CC4)c(F)cc3[nH]2)n1` [Example 17, 5-chloro-6-(6-(1,1-dioxidothiomorpholino)-5,7-difluoro-4-oxo-1,4-dihydroquinolin-2-yl)picolinonitrile], in experiment [1], the EC50 lay within 10 to 100 nM and the Emax was more than 100%. For the same molecule, in experiment [2], the Emax was more than 100% and the EC50 is 10 to 100 nM. Moreover, in experiment [3], the inhibition at 0.1 µM came to 78%.
On to `CN(C)C(=O)[C@@H]1CCCN(c2c(F)cc3[nH]c(-c4cc(C#N)ncc4Cl)cc(=O)c3c2F)C1` [Example 22, (R)-1-(2-(5-chloro-2-cyanopyridin-4-yl)-5,7-difluoro-4-oxo-1,4-dihydroquinolin-6-yl)-N,N-dimethylpiperidine-3-carboxamide], for which, in experiment [1], the EC50 was in the range of 10 to 100 nM and the Emax was more than 100%. Moreover, in experiment [2], the Emax is more than 100% and the EC50 is less than 10 nM. Further, the inhibition at 0.1 µM in experiment [3] was found to be 91%.
Take `C[S+]([O-])c1cnc(C#N)cc1-c1cc(=O)c2c(F)cc(F)cc2[nH]1` (stereo not drawn) [Example 28, 4-(5,7-difluoro-4-oxo-1,4-dihydroquinolin-2-yl)-5-(methylsulfinyl)picolinonitrile]: the EC50 in experiment [1] and in experiment [2] was 10 to 100 nM in each case. Further, the Emax in experiment [1] and in experiment [2] was more than 100% throughout. Further, the inhibition at 0.1 µM in experiment [3] amounted to 79%.
With `CN(C)C(=O)[C@H]1CCCN(c2c(F)cc3[nH]c(-c4cc(C#N)ncc4S(C)(=O)=O)cc(=O)c3c2F)C1` (single isomer, unassigned) [Example 34], in experiment [1], the EC50 is less than 10 nM and the Emax is more than 100%. Also, in experiment [2], the Emax was more than 100% and the EC50 is less than 10 nM. Besides, the inhibition at 0.1 µM in experiment [3] was found to be 87%.
Regarding `N#Cc1cc(-c2cc(=O)c3c(F)cc(F)cc3[nH]2)c(Cl)cn1` [Example 2, 5-chloro-4-(5,7-difluoro-4-oxo-1,4-dihydroquinolin-2-yl)picolinonitrile], in experiment [1], the EC50 was less than 10 nM and the Emax was more than 100%. Also, in experiment [2], the Emax was more than 100% and the EC50 is less than 10 nM. Besides, in experiment [3], the EC50 was 0.14 nM and the inhibition at 0.1 µM was determined as 91%.
Consider `CN1CCN(c2c(F)cc3[nH]c(-c4cc(C#N)ncc4Cl)cc(=O)c3c2F)CC1=O` [Example 24, 5-chloro-4-(5,7-difluoro-6-(4-methyl-3-oxopiperazin-1-yl)-4-oxo-1,4-dihydroquinolin-2-yl)picolinonitrile], for which, in experiment [1], the EC50 lay within 10 to 100 nM and the Emax was more than 100%. Besides, in experiment [2], the Emax was more than 100% and the EC50 lay within 10 to 100 nM. The inhibition at 0.1 µM in experiment [3] was found to be 87%.
Regarding `CN1CCN(c2c(F)cc3[nH]c(-c4cc(C#N)ncc4Cl)cc(=O)c3c2F)CC1` [Example 15, 5-chloro-4-(5,7-difluoro-6-(4-methylpiperazin-1-yl)-4-oxo-1,4-dihydroquinolin-2-yl)picolinonitrile], the values for the EC50 in experiment [1], in experiment [2] and in experiment [3] were 10 to 100 nM, 10 to 100 nM and 3.1 nM, respectively. Moreover, the Emax in experiment [1] and in experiment [2] was more than 100% in each case. For the same molecule, the inhibition at 0.1 µM in experiment [3] worked out at 81%.
Turning to `CS(=O)(=O)c1cnc(C#N)cc1-c1cc(=O)c2ccc(Cl)cc2[nH]1` [Example 30, 4-(7-chloro-4-oxo-1,4-dihydroquinolin-2-yl)-5-(methylsulfonyl)picolinonitrile], the EC50 in experiment [1] and in experiment [2] was less than 10 nM in each case. Moreover, the Emax in experiment [1] and in experiment [2] was more than 100% throughout. Besides, the inhibition at 0.1 µM in experiment [3] is 88%.
Turning to `CN1CCC(c2c(F)cc3[nH]c(-c4nc(C#N)ccc4Cl)cc(=O)c3c2F)CC1` [Example 16, 5-chloro-6-(5,7-difluoro-6-(1-methylpiperidin-4-yl)-4-oxo-1,4-dihydroquinolin-2-yl)picolinonitrile], the 50% effective concentration (EC50) in experiment [1] and in experiment [2] was 10 to 100 nM throughout. For the same molecule, the Emax in experiment [1] and in experiment [2] was more than 100% in each case. In addition, the inhibition at 0.1 µM in experiment [3] is 85%.
Consider `N#Cc1ccc(Cl)c(-c2cc(=O)c3ccc(Cl)cc3[nH]2)n1` [Example 6, 5-chloro-6-(7-chloro-4-oxo-1,4-dihydroquinolin-2-yl)picolinonitrile], for which, in experiment [1], the EC50 was less than 10 nM and the Emax is more than 100%. Also, in experiment [2], the Emax was more than 100% and the EC50 is less than 10 nM. Besides, the inhibition at 0.1 µM in experiment [3] was 73%.
In the case of `N#Cc1ncc(Cl)c(-c2cc(=O)c3c(F)cc(F)cc3[nH]2)n1` [Example 33, 5-chloro-4-(5,7-difluoro-4-oxo-1,4-dihydroquinolin-2-yl)pyrimidine-2-carbonitrile], in experiment [1], the EC50 is less than 10 nM and the Emax is more than 100%. Also, in experiment [2], the Emax is more than 100% and the EC50 was less than 10 nM. For the same molecule, the inhibition at 0.1 µM in experiment [3] was found to be 31%.
